In experiment [1] the target is T1, spermine oxidase (SMO) (Homo sapiens, UniProt Q9NWM0). Kind of experiment: biochemical.
Experiment [2] has as its target T1, spermine oxidase (SMO). It counts as biochemical.

In general, Kd refers to a measure of binding affinity in units of concentration. Usually Ki stands for a dissociation constant, usually derived from enzyme kinetics or from competition with a known ligand. A higher Ki goes with weaker binding.

T1 sequence (Q9NWM0 whole entry): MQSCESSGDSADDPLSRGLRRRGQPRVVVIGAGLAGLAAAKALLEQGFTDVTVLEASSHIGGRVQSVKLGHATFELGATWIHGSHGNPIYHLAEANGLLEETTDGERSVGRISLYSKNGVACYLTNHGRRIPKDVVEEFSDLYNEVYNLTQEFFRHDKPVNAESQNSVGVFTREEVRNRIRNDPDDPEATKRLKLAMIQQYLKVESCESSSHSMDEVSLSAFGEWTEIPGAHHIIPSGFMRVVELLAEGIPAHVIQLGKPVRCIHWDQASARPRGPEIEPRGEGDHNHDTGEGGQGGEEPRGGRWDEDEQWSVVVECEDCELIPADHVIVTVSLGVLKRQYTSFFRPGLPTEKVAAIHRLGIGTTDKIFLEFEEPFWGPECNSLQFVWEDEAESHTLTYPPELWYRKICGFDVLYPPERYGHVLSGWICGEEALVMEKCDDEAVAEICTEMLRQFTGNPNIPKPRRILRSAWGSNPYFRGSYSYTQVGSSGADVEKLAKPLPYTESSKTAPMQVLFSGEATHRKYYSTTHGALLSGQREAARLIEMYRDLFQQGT

In the case of `NCCCNCCCCNCCCN` [spermine], on spermine oxidase (SMO) [1], the affinity, expressed as Kd, was 48 ± 8.2 µM. For `NCCCCNCCCN` [spermidine], the Ki at spermine oxidase (SMO) [2] was found to be 550 ± 20 µM.

Molecule `c1ccc(CNCCCCNCc2ccccc2)cc1` [DBDB, N,N’-dibenzylbutane-1,4-diamine] gave a Ki at spermine oxidase (SMO) [2] of 320 ± 80 µM.

The record behind these values is publication PMC2810717 (Biochemistry, 2010).
